The stoichiometry N is the number of molecules, sites or subunits per partner or assembly.

The values that follow come from publication PMC6294363, “Structural and functional insight into serine hydroxymethyltransferase from Helicobacter pylori” (PLoS ONE, 2018).

Data set [1] deals with T1, HpSHMT (H. pylori SHMT; HP0183 gene product) (Helicobacter pylori, UniProt P56089).
T1 construct: gene glyA; full-length, C-terminal 6xHis tag (pQE60), expressed in E. coli SG 13009; predicted monomer 46,776 Da; homodimer; purified largely as apoprotein
T1 sequence (P56089 1-416): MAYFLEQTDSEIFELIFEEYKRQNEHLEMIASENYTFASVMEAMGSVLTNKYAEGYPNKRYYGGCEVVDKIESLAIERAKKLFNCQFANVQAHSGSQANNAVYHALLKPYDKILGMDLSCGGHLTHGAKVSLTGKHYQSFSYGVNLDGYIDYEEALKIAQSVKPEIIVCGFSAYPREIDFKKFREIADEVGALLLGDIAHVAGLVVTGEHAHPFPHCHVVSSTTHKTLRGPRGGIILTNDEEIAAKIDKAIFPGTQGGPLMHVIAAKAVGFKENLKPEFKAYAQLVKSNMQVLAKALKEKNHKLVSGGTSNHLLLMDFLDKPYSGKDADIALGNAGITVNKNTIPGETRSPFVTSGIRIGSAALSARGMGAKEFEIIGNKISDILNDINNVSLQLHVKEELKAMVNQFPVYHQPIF
Nature of the data set: absorbance at […] nm of enzyme-PLP-glycine-folate ternary complex, MTHF titration. Particulars: read-out: apparent KFol. The class given is binding.

The target of data set [2] is T1, HpSHMT (H. pylori SHMT; HP0183 gene product). Description: coupled alcohol dehydrogenase assay, NADH oxidation at […] nm. Particulars: 20 uM SHMT, 250 uM PLP, 250 uM NADH, 50 mM phosphate pH 8.0, room temperature; folate-independent retroaldol cleavage. Type of data set: biochemical.
For data set [3] the target is unchanged. Description: absorbance at […] nm of enzyme-PLP-glycine-folate ternary complex. The note with it: fixed 5 mM glycine with 250 uM PLP and 0-2 mM MTHF, pH 8.0, room temperature. The class given is binding.
Data set [4] deals with the molecule itself. Nature of the data set: crystal structure; HpSHMT apoprotein, hanging drop vapour diffusion, 20% PEG 3350, 0.2 M sodium acetate, room temperature; space group P212121, two monomers in the asymmetric unit; 2.8 Å.

As to `Nc1nc2c(c(=O)[nH]1)N1CN(c3ccc(C(=O)N[C@@H](CCC(=O)O)C(=O)O)cc3)C[C@H]1CN2` [MTHF], the Kd in data set [1] is 300 µM.

Take `C[C@H](O)[C@H](N)C(=O)O` [L-allothreonine]: the “coupled alcohol dehydrogenase assay, NADH oxidation at 340 nm” value in data set [2] is “it is able to transform L-allothreonine to acetaldehyde, thus confirming its activity as SHMT”.

On to `NCC(=O)O` [glycine], for which the “absorbance at 502 nm of enzyme-PLP-glycine-folate ternary complex” value in data set [3] was “corresponding to the intermediate ternary enzyme-PLP-glycine-folate complex”.

B1: Serine hydroxymethyltransferase from Helicobacter pylori 26695 (HP0183 gene product) (enzyme, Helicobacter pylori strain 26695, UniProt P56089 1-416, looked up)
chain: T1 sequence (P56089 1-416)
notes: Serine hydroxymethyltransferase (glyA, ORF HP0183) of Helicobacter pylori strain 26695; gene amplified with primers SA36/SA37 (from the ATG to the end of the ORF) and inserted into pQE60; residues 3-416 modelled in the crystal; Homodimer by crystal structure and dynamic light scattering; Predicted mass per monomer 46,776 Da; also called HpSHMT; SHMT; source: E. coli SG 13009 (pREP4), pQE60, …
B1: the “stoichiometry N” value in data set [4] worked out at 2.
